# US11807625B2, “Capsid inhibitors for the prevention of HIV” (Gilead Sciences, Inc., priority 2019, dated 2023)
# Experiment: PK of compound of Formula (Ia) after single subcutaneous dose of solution formulations in Wistar Han rats
# Assay type: in vivo
# Conditions: male, Wistar Han, rat, plasma, sc, 50 mg/kg, SC 50 mg/kg
# Protocol: Formulations containing the compound of Formula (Ia), or a pharmaceutically acceptable salt thereof, were prepared as solutions and optionally administered subcutaneously or intramuscularly to rats, rabbits, and/or dogs.
# A solution of about 400 mg/mL of the compound of Formula (Ia) having 19.14 w/w % water, 40.66 w/w % PEG 300, 35.20 w/w % of a sodium salt of a compound of Formula (Ia), and 5.00% ethanol was prepared. The solution was administered subcutaneously to male Wistar Han rats at a dose level of about 50 mg/kg and dose volume of 0.125 mL/kg and the pharmacokinetic (PK) profile was determined.
# A solution of about 500 mg/mL of the compound of Formula (Ia) having 16.64 w/w % water, 35.36 w/w % PEG 300, 43.00 w/w % of a sodium salt of a compound of Formula (Ia), and 5.00% ethanol was prepared. The solution was administered subcutaneously to male Wistar Han rats at a dose level of about 50 mg/kg and dose volume of 0.1 mL/kg and the pharmacokinetic (PK) profile was determined.
# A solution of about 400 mg/mL of the compound of Formula (Ia) having 17.00 w/w % water, 36.40 w/w % PEG 300, 35.20 w/w % of a sodium salt of a compound of Formula (Ia), 5.00 w/w % ethanol, and 6.40 w/w % poloxamer 188 was prepared. The solution was administered subcutaneously to male beagle dogs at a dose level of about 12 mg/kg and male Wistar Han rats at a dose level of about 50 mg/kg. The pharmacokinetic profiles were determined, and the results for dogs are summarized in Table and Table, while the results for rats are summarized in Table and Table below.
# A solution of about 500 mg/mL of the compound of Formula (Ia) having 14.06 w/w % water, 30.12 w/w % PEG 300, […] of a sodium salt of a compound of Formula (Ia), 5.00 w/w % ethanol, and 6.40 w/w % poloxamer 188 was prepared. The solution was administered subcutaneously to male beagle dogs at a dose level of about 12 mg/kg and male Wistar Han rats at a dose level of about 50 mg/kg. The pharmacokinetic profiles were determined, and the results for dogs are summarized in Table and Table, while the results for rats are summarized in Table and Table below.
# A solution of about 300 mg/mL of the compound of Formula (Ia) having 23.33 w/w % water, 48.99 w/w % PEG 300, 26.47 w/w % of a sodium salt of a compound of Formula (Ia), and 1.21 w/w % poloxamer 188 was prepared. The solution was administered subcutaneously to male beagle dogs at a dose level of about 6 mg/kg and male Wistar Han rats at a dose level of about 50 mg/kg. The pharmacokinetic profiles were determined, and the results for dogs are summarized in Table and Table, while the results for rats are summarized in Table and Table below.
# A solution of about 400 mg/mL of the compound of Formula (Ia) having 18.80 w/w % water, 40.25 w/w % PEG 300, 34.38 w/w % of a sodium salt of a compound of Formula (Ia), 5.00 w/w % ethanol, and 1.57 w/w % poloxamer 188 was prepared. The solution was administered subcutaneously to male beagle dogs at a dose level of about 12 mg/kg and male Wistar Han rats at a dose level of about 50 mg/kg. The pharmacokinetic profiles were determined, and the results for dogs are summarized in Table and Table, while the results for rats are summarized in Table and Table below.
# A solution of about 500 mg/mL of the compound of Formula (Ia) having 16.29 w/w % water, 34.88 w/w % PEG 300, 41.92 w/w % of a sodium salt of a compound of Formula (Ia), 5.00 w/w % ethanol, and 1.91 w/w % poloxamer 188 was prepared. The solution was administered subcutaneously to male beagle dogs at a dose level of about 12 mg/kg and male Wistar Han rats at a dose level of about 50 mg/kg. The pharmacokinetic profiles were determined, and the results for dogs are summarized in Table and Table, while the results for rats are summarized in Table and Table below.
# A solution of about 400 mg/mL of the compound of Formula (Ia) having 20.90 w/w % water, 44.72 w/w % PEG 300, and 34.38 w/w % of a sodium salt of a compound of Formula (Ia) was prepared. […]
# [1] = mean, n = 3 rats, solution R, 400 mg/mL
# [2] = mean, n = 3 rats, solution S, 500 mg/mL
# [3] = mean, n = 3 rats, solution V, 300 mg/mL
# [4] = mean, n = 5 rats, solution T, 400 mg/mL
# [5] = mean, n = 5 rats, solution U, 500 mg/mL
# [6] = individual rats, solution R, 400 mg/mL
# [7] = individual rats, solution S, 500 mg/mL
# [8] = individual rats, solution V, 300 mg/mL
# [9] = mean (rat #1 NS), solution T, 400 mg/mL
# [10] = Wistar Han rats, 400 mg/mL solution AA (6.25% poloxamer 188), Mean n = 4
# [11] = Wistar Han rats, 400 mg/mL solution AA (6.25% poloxamer 188), animals #1-#4
smiles,measurement,setting,value
CC(C)(C#Cc1ccc(-c2ccc(Cl)c3c(NS(C)(=O)=O)nn(CC(F)(F)F)c23)c([C@H](Cc2cc(F)cc(F)c2)NC(=O)Cn2nc(C(F)(F)F)c3c2C(F)(F)[C@@H]2C[C@H]32)n1)S(C)(=O)=O [compound of Formula (Ia)],concentration at 672 h,[1],339 nM
same,concentration at 672 h,[2],296 nM
same,concentration at 672 h,[3],308 nM
same,concentration at 672 h,[4],298 nM
same,concentration at 672 h,[5],296 nM
same,concentration at 840 h,[6],295 nM
same,concentration at 840 h,[7],429 nM
same,concentration at 840 h,[8],285 nM
same,concentration at 840 h,[1],350 nM
same,concentration at 840 h,[2],300 nM
same,concentration at 840 h,[3],308 nM
same,concentration at 840 h,[4],215 nM
same,concentration at 840 h,[5],261 nM
same,concentration at 1008 h,[6],303 nM
same,concentration at 1008 h,[1],354 nM
same,concentration at 1008 h,[2],300 nM
same,concentration at 1008 h,[3],258 nM
same,concentration at 1008 h,[4],207 nM
same,concentration at 1008 h,[5],284 nM
same,concentration at 1334 h,[6],296 nM
same,concentration at 1334 h,[7],398 nM
same,concentration at 1334 h,[1],328 nM
same,concentration at 1334 h,[2],300 nM
same,concentration at 1344 h,[8],272 nM
same,concentration at 1344 h,[3],301 nM
same,concentration at 1344 h,[4],159 nM
same,concentration at 1344 h,[5],226 nM
same,concentration at 1680 h,[6],271 nM
same,concentration at 1680 h,[7],342 nM
same,concentration at 1680 h,[8],221 nM
same,concentration at 1680 h,[9],145 nM
same,concentration at 1680 h,[1],277 nM
same,concentration at 1680 h,[2],249 nM
same,concentration at 1680 h,[3],250 nM
same,concentration at 1680 h,[5],198 nM
same,concentration at 2016 h,[6],199 nM
same,concentration at 2016 h,[7],221 nM
same,concentration at 2016 h,[8],138 nM
same,concentration at 2016 h,[9],140 nM
same,concentration at 2016 h,[1],202 nM
same,concentration at 2016 h,[2],171 nM
same,concentration at 2016 h,[3],181 nM
same,concentration at 2016 h,[5],174 nM
same,concentration at 2352 h,[6],183 nM
same,concentration at 2352 h,[7],231 nM
same,concentration at 2352 h,[8],122 nM
same,concentration at 2352 h,[9],117 nM
same,concentration at 2352 h,[1],182 nM
same,concentration at 2352 h,[2],173 nM
same,concentration at 2352 h,[3],165 nM
same,concentration at 2352 h,[5],167 nM
same,concentration at 2688 h,[6],168 nM
same,concentration at 2688 h,[7],171 nM
same,concentration at 2688 h,[8],113 nM
same,concentration at 2688 h,[9],162 nM
same,concentration at 2688 h,[1],154 nM
same,concentration at 2688 h,[2],148 nM
same,concentration at 2688 h,[3],141 nM
same,concentration at 2688 h,[5],108 nM
same,concentration at 3024 h,[6],136 nM
same,concentration at 3024 h,[7],125 nM
same,concentration at 3024 h,[8],81.4 nM
same,concentration at 3024 h,[9],131 nM
same,concentration at 3024 h,[1],122 nM
same,concentration at 3024 h,[2],108 nM
same,concentration at 3024 h,[3],99.1 nM
same,concentration at 3024 h,[5],102 nM
same,concentration at 3360 h,[6],132 nM
same,concentration at 3360 h,[7],135 nM
same,concentration at 3360 h,[8],81.1 nM
same,concentration at 3360 h,[9],117 nM
same,concentration at 3360 h,[1],111 nM
same,concentration at 3360 h,[2],110 nM
same,concentration at 3360 h,[3],77.4 nM
same,concentration at 3360 h,[5],88 nM
same,concentration at 3696 h,[7],102 nM
same,concentration at 3696 h,[8],72.2 nM
same,concentration at 3696 h,[9],73.7 nM
same,concentration at 3696 h,[1],94.8 nM
same,concentration at 3696 h,[2],92 nM
same,concentration at 3696 h,[3],68.4 nM
same,concentration at 3696 h,[5],70.5 nM
same,concentration at 4032 h,[7],118 nM
same,concentration at 4032 h,[8],56.6 nM
same,concentration at 4032 h,[9],71.5 nM
same,concentration at 4032 h,[1],102 nM
same,concentration at 4032 h,[2],110 nM
same,concentration at 4032 h,[3],52.3 nM
same,concentration at 4032 h,[5],65.7 nM
same,concentration at 4704 h,[7],62.9 nM
same,concentration at 4704 h,[8],35.9 nM
same,concentration at 4704 h,[9],44.3 nM
same,concentration at 4704 h,[1],69 nM
same,concentration at 4704 h,[2],71.5 nM
same,concentration at 4704 h,[3],30.2 nM
same,concentration at 4704 h,[5],43.1 nM
same,concentration at 5376 h,[9],34.4 nM
same,concentration at 5376 h,[1],58 nM
same,concentration at 5376 h,[2],58.8 nM
same,concentration at 5376 h,[5],38.9 nM
same,concentration at 6048 h,[9],29 nM
same,concentration at 6048 h,[1],30.2 nM
same,concentration at 6048 h,[2],45 nM
same,concentration at 6048 h,[5],36.2 nM
same,concentration at 6720 h,[9],21.5 nM
same,concentration at 6720 h,[1],26.3 nM
same,concentration at 6720 h,[2],37 nM
same,concentration at 6720 h,[5],26.5 nM
same,concentration at 7392 h,[1],16.5 nM
same,concentration at 7392 h,[2],29.4 nM
same,concentration at 8064 h,[1],12.3 nM
same,concentration at 8064 h,[2],24.8 nM
same,concentration at 1 h,[10],35.9 nM
same,concentration at 1 h,[11],29 nM
same,concentration at 3 h,[10],69.5 nM
same,concentration at 3 h,[11],67.9 nM
same,concentration at 8 h,[10],122 nM
same,concentration at 8 h,[11],109 nM
same,concentration at 24 h,[10],233 nM
same,concentration at 24 h,[11],259 nM
same,concentration at 48 h,[10],251 nM
same,concentration at 48 h,[11],272 nM
same,concentration at 72 h,[10],227 nM
same,concentration at 72 h,[11],231 nM
same,concentration at 96 h,[10],201 nM
same,concentration at 96 h,[11],211 nM
same,concentration at 168 h,"Wistar Han rats, 400 mg/mL solution AA (6.25% poloxamer 188), 168 h, Mean n = 4",141 nM
same,concentration at 336 h,"Wistar Han rats, 400 mg/mL solution AA (6.25% poloxamer 188), 336 h, Mean n = 4",130 nM
same,concentration at 504 h,"Wistar Han rats, 400 mg/mL solution AA (6.25% poloxamer 188), 504 h, Mean n = 4",131 nM
same,concentration at 672 h,[10],117 nM
same,concentration at 672 h,[11],130 nM
same,concentration at 840 h,[10],118 nM
same,concentration at 840 h,[11],170 nM
same,concentration at 1008 h,[10],103 nM
same,concentration at 1008 h,[11],134 nM
same,concentration at 1344 h,[10],77.1 nM
same,concentration at 1344 h,[11],93 nM
same,concentration at 1680 h,[10],63.8 nM
